This is an account of results in the NIST ThermoML archive (doi:10.1016/j.jct.2006.07.025).

The conditions of series [1]: for surface tension liquid-gas: Pendant drop shape; for mass density: 101 kPa, Liquid, Vibrating tube method.
The nature of series [2]: xn = mol fraction of the nth substance listed. To be noted: x1 = 1; for surface tension liquid-gas: Pendant drop shape; for mass density: 101 kPa, Liquid, Vibrating tube method.

“And” between values parts separate entries of the source, which are not always exact repeats. Equal entries are not always repeated. ± gives the expanded uncertainty stated by the source.

By surface tension liquid-gas is commonly meant the force per length acting along the surface. By mass density is commonly meant the mass of a sample divided by its volume. Take `Cc1ccc(C)c(C)c1` [1,2,4-trimethylbenzene]: the surface tension liquid-gas in series [1] (298.15 K) came to 29.17 ± 0.33 mN/m; in series [1] (303.15 K) it was 28.67 ± 0.32 mN/m; in series [1] (308.15 K), 28.17 ± 0.32 mN/m; in series [1] (313.15 K), 27.67 ± 0.31 mN/m. The mass density is recorded as 871.66 ± 0.19 kg/m3 in series [1] (298.15 K), 867.61 ± 0.19 kg/m3 in series [1] (303.15 K), 863.59 ± 0.19 kg/m3 in series [1] (308.15 K) and 859.54 ± 0.19 kg/m3 in series [1] (313.15 K).

Turning to `Cc1cc(C)cc(C)c1` [1,3,5-trimethylbenzene], the surface tension liquid-gas came to 28.09 ± 0.31 mN/m in series [1] (298.15 K), 27.67 ± 0.31 mN/m in series [1] (303.15 K), 27.24 ± 0.3 mN/m in series [1] (308.15 K) and 26.82 ± 0.3 mN/m in series [1] (313.15 K). The mass density amounted to 861.04 ± 0.18 kg/m3 in series [1] (298.15 K), 856.96 ± 0.18 kg/m3 in series [1] (303.15 K), 852.84 ± 0.18 kg/m3 in series [1] (308.15 K) and 848.74 ± 0.18 kg/m3 in series [1] (313.15 K).

In the case of `CCCCOC(C)=O` [butyl ethanoate], the surface tension liquid-gas in series [1] (298.15 K) worked out at 24.89 ± 0.27 mN/m; in series [1] (303.15 K), 24.35 ± 0.27 mN/m; in series [1] (308.15 K), 23.82 ± 0.27 mN/m; in series [1] (313.15 K) it was 23.28 ± 0.26 mN/m. Besides, the mass density was 876.18 ± 0.14 kg/m3 in series [1] (298.15 K), 871.31 ± 0.14 kg/m3 in series [1] (303.15 K), 866.24 ± 0.14 kg/m3 in series [1] (308.15 K) and 861.57 ± 0.14 kg/m3 in series [1] (313.15 K).

For the molecule `CCCCOC(C)=O` [butyl ethanoate] + Cc1cc(C)cc(C)c1, the surface tension liquid-gas in series [2] (298.15 K) was 24.89 ± 0.27 mN/m; in series [2] (303.15 K) it was 24.35 ± 0.27 mN/m; in series [2] (308.15 K), 23.82 ± 0.27 mN/m; in series [2] (313.15 K), 23.28 ± 0.26 mN/m. The mass density in series [2] (298.15 K) turned out to be 876.18 ± 0.14 kg/m3; in series [2] (303.15 K), 871.31 ± 0.14 kg/m3; in series [2] (308.15 K), 866.24 ± 0.14 kg/m3; in series [2] (313.15 K) it was 861.57 ± 0.14 kg/m3.

In the case of `CCCCOC(C)=O` [butyl ethanoate] + Cc1ccc(C)c(C)c1, the surface tension liquid-gas worked out at 24.89 ± 0.27 mN/m in series [2] (298.15 K), 24.35 ± 0.27 mN/m in series [2] (303.15 K), 23.82 ± 0.27 mN/m in series [2] (308.15 K) and 23.28 ± 0.26 mN/m in series [2] (313.15 K). The mass density was determined as 876.18 ± 0.14 kg/m3 in series [2] (298.15 K), 871.31 ± 0.14 kg/m3 in series [2] (303.15 K), 866.24 ± 0.14 kg/m3 in series [2] (308.15 K) and 861.57 ± 0.14 kg/m3 in series [2] (313.15 K).

Turning to `CCCOC(C)=O` [propyl ethanoate], the surface tension liquid-gas in series [1] (298.15 K) was 23.99 ± 0.27 mN/m; in series [1] (303.15 K), 23.36 ± 0.26 mN/m and 23.35 ± 0.26 mN/m; in series [1] (308.15 K) it was 22.73 ± 0.26 mN/m; in series [1] (313.15 K), 22.1 ± 0.3 mN/m. Moreover, the mass density in series [1] (298.15 K) came out at 882.64 ± 0.15 kg/m3; in series [1] (303.15 K), 876.99 ± 0.15 kg/m3; in series [1] (308.15 K) it was 871.33 ± 0.15 kg/m3; in series [1] (313.15 K) it was 865.68 ± 0.15 kg/m3.

On to `CCCOC(C)=O` [propyl ethanoate] + Cc1cc(C)cc(C)c1, for which the surface tension liquid-gas in series [2] (298.15 K) was found to be 23.99 ± 0.27 mN/m; in series [2] (303.15 K), 23.35 ± 0.26 mN/m; in series [2] (308.15 K) it was 22.73 ± 0.26 mN/m; in series [2] (313.15 K), 22.1 ± 0.25 mN/m. For the same molecule, the mass density in series [2] (298.15 K) is given as 882.64 ± 0.15 kg/m3; in series [2] (303.15 K) it was 876.99 ± 0.15 kg/m3; in series [2] (308.15 K), 871.33 ± 0.15 kg/m3; in series [2] (313.15 K), 865.68 ± 0.15 kg/m3.

As to `CCCOC(C)=O` [propyl ethanoate] + Cc1ccc(C)c(C)c1, the surface tension liquid-gas was determined as 23.99 ± 0.27 mN/m in series [2] (298.15 K), 23.36 ± 0.26 mN/m in series [2] (303.15 K), 22.73 ± 0.26 mN/m in series [2] (308.15 K) and 22.1 ± 0.3 mN/m in series [2] (313.15 K). The mass density in series [2] (298.15 K) was 882.64 ± 0.15 kg/m3; in series [2] (303.15 K) it was 876.99 ± 0.15 kg/m3; in series [2] (308.15 K), 871.33 ± 0.15 kg/m3; in series [2] (313.15 K), 865.68 ± 0.15 kg/m3.
